One data set concerns MAP2. Briefly: MAP2 expression in SH-SY5Y cells (qPCR, immunostaining, immunoblotting). In kind it is cell-based. Conditions: undifferentiated SH-SY5Y cells, 10% bacterial supernatant, vs untreated cells. How it is done:
SH-SY5Y were plated in 10 cm petri dishes a density of 2×10^6 cells. After 24 h cells were treated in differentiation medium (growth medium containing 1% FBS without RA) with 10% bacteria supernatants or YCFA+, 10 uM RA, 200 uM hexanoic acid or 200 uM valproic acid, for 17 hrs. There after representative images were taken using phase contrast EVOS XL core microscope at 40×10.65 magnification. Cells were collected, and total RNA was isolated according to RNeasy mini kit protocol (Qiagen). cDNAs were made using the high capacity cDNA reverse transcription kit (Applied Biosystems). Gene expression was measured using qPCR. GAPDH was used as internal control. Fold change was calculated according to the 2^(−ΔΔct) method.
Cells were seeded onto 8-well chamber slides (Marienfeld Laboratory Glassware) at 5×10^4 cells/well overnight and were treated with 10% bacterial supernatant for 24 h. […]
(§1) SH-SY5Y cells cultured under the indicated conditions described above, treated with MRx0029 for 24 h and then lysed in RIPA buffer containing cocktail of protease inhibitors (Roche Diagnostics, UK). […] The blots were then incubated with the appropriate horseradish peroxidase (HRP)-conjugated secondary antibody, and proteins were detected by chemiluminescence detection kit (Pierce Biotechnology, Rockford, Ill.). […]
On the technique in general: Quantitative PCR measures a nucleic acid by following its amplification.

Data set [1] concerns neuron specific enolase (NSE)/enolase 2. Briefly: Suppression of neuron specific enolase (NSE)/enolase 2 (Example 18). In kind it is cell-based. Conditions: FIG. 57.
For the next data set, the system named is β3Tubulin. Briefly: β3Tubulin expression in SH-SY5Y cells (immunostaining, immunoblotting). In kind it is cell-based. Conditions: undifferentiated SH-SY5Y cells, 10% bacterial supernatant 24 h, vs untreated cells. The protocol:
Cells were seeded onto 8-well chamber slides (Marienfeld Laboratory Glassware) at 5×10^4 cells/well overnight and were treated with 10% bacterial supernatant for 24 h. For differentiation, cells were treated with 10 nM RA for 5 days before treating with cell-free bacterial supernatant for 24 h.
Afterwards, the cells were fixed with 4% paraformaldehyde in PBS for 20 minutes at room temperature (RT). Fixed cells were washed with PBS, and permeabilized with 1% Triton X-100 in PBS for 10 minutes. After washing with PBS, the slides were incubated with blocking buffer (4% BSA/PBS) for 1 h at RT before adding anti-MAP2 antibody or β3-tubulin (sc-74421 and sc-80005 respectively, Santa Cruz Biotechnology Inc) diluted in 1% BSA/PBS for 12 h at 4° C. They were then washed twice with PBS, followed by incubation with Alexa Flour 488 conjugated anti-mouse (Molecular Probes Inc) and Alexa Flour 594 conjugated Phalloidin (ab176757, Abcam) for 1 h at RT. […]
as §1
Background: In western blotting, separated proteins are transferred to a membrane and probed.

In another data set the test system is TJP1 and Occludin. In words: Ex vivo gene expression in the gut of mice fed with MRx0029. Conditions: colon region of the murine intestine. How it is done: The in vitro results were compared with data from the ex vivo parallel analysis on the gut of mice fed with MRx0029. Gene expression of TJP1 and Occludin was quantified in the colon and ileum. […] Animals were allowed to habituate to their holding room for one week after arrival into the animal unit. They receive oral gavage (200 μL dose) of live biotherapeutics at a dose of 1×10^9 CFU for 6 consecutive days between 15:00 and 17:00. On day 7, the animals are decapitated, and tissues are harvested for experimentation. Animals were sacrificed in a random fashion regarding treatment and testing condition; sampling occurred between 9.00 a.m. and 2:30 p.m. Trunk blood was collected in potassium EDTA (Ethylene Diamine Tetra Acetic Acid) tubes and spun for 15 min at 4000 g. Plasma was isolated and stored at −80° C. for further analysis. The brain was quickly excised, dissected and each brain region was snap-frozen on dry ice and stored at −80° C. for further analysis. Spleen was removed, collected in 5 mL RPMI media (with L-glutamine and sodium bicarbonate, R8758 Sigma+10% FBS (F7524, Sigma)+1% Pen/Strep (P4333, Sigma)) and processed immediately after culls for ex-vivo immune stimulation. […]

The next data set has as its system SH-SY5Y cells. In kind it is cell-based. The protocol: SH-SY5Y cells were plated at a seeding density of 10,000 cells/well, 24 hrs later cells were treated in 100 ul of 1% FBS growth media with different concentrations (express as percentage v/v) of cell-free bacterial supernatants from stationary phase cultures for 22 h. Thereafter 10 μl of MTT solution was added and cells were incubated in CO2 incubator for 4 h, at the end of this time 100 μl of isopropanol with 0.04 HCL was added to each well. The absorbance was measured at 560 nm wavelength and a reference wavelength of 655 nm. MTT assay kit was purchased from Merck Millipore (Cat n. CT01).

The next data set deals with T1, HDAC3 (Homo sapiens, UniProt O15379).
T1 construct: purchased BPS Bioscience, CA
Briefly: Specific HDAC activity analysis (fluorogenic assay kit). The format is biochemical. The conditions noted are these: cell free supernatant diluted 1 in 10. The protocol: (§2) Specific HDAC inhibition activity was analysed for HDAC1, 2, 3, 4, 5, 6, 9 using fluorogenic assay kits for each type of HDAC (BPS Bioscience, CA). Assays were conducted according to manufacturer's instructions and each sample were performed in replicates. Cell free supernatants were diluted 1 in 10 and exposed to specific HDAC proteins provided in the kit to maintain consistency between methods.
(§3) The specific HDAC inhibition profile of the test bacteria strain was investigated. Specific HDAC inhibition assays (BPS Bioscience, CA) were carried out for Class I and Class II HDACs. The ability of the bacterial strain to inhibit HDAC enzymes was compared to butyrate, hexanoic and valeric acid.

In the next data set the test system is class II HDACs. The description is as above. The format is biochemical. The conditions noted are these: data not shown. The protocol: as §2, §3
The target of another data set is T2, HDAC2 (Homo sapiens, UniProt Q92769).
T2 construct: purchased BPS Bioscience, CA
The data set is described as above. The conditions noted are these: cell free supernatant diluted 1 in 10. In kind it is biochemical. How it is done:
as §2, §3

For another data set, the target named is T3, HDAC1 (Homo sapiens, UniProt Q13547).
T3 construct: purchased BPS Bioscience, CA
The description is as above. The conditions noted are these: cell free supernatant diluted 1 in 10. The format is biochemical. The protocol:
as §2, §3

T2 sequence (Q92769 whole entry): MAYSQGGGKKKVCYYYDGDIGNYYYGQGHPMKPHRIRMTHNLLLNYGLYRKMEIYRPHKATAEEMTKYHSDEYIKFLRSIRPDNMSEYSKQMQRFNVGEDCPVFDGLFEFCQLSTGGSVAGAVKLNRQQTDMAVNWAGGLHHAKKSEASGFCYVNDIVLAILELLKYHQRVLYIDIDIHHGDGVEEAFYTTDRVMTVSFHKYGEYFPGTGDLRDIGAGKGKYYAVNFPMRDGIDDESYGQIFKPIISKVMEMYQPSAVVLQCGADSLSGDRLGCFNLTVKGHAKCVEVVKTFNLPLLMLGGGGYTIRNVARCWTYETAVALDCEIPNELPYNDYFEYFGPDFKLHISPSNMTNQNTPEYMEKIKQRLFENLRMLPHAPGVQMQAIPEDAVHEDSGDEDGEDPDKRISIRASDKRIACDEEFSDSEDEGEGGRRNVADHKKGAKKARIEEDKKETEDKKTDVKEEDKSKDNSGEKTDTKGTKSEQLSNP
T1 sequence (O15379 whole entry): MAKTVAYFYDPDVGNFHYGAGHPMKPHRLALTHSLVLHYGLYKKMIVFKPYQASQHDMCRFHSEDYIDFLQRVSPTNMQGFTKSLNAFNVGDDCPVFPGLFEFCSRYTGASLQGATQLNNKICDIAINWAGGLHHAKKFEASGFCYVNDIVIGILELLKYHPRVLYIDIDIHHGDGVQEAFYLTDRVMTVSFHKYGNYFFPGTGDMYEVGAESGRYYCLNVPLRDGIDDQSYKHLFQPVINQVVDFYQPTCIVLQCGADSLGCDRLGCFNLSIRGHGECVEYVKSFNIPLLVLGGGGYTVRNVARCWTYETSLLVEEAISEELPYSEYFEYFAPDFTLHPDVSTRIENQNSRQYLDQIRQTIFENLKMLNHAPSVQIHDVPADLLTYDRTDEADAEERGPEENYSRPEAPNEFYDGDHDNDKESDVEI
T1 sequence (Q9Y618 395-489 partner limits assumed): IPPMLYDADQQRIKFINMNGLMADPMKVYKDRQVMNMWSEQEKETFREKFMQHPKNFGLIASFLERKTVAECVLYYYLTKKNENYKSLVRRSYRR
T3 sequence (Q13547 whole entry): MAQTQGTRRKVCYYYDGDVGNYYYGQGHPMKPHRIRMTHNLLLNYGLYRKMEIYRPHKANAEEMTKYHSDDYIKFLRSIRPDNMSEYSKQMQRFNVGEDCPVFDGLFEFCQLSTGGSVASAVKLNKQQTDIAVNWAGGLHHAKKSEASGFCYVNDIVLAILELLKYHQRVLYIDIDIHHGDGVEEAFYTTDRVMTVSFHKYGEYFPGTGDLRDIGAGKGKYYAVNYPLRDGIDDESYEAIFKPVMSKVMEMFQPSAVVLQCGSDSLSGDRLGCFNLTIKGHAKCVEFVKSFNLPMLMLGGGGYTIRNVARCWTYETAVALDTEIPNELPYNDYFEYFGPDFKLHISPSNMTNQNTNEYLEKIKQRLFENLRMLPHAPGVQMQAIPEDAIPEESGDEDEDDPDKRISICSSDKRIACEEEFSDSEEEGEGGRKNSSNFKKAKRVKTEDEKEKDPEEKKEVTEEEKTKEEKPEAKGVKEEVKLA

Consider Megasphaera massiliensis MRx0029, for which, in the data set on MAP2, the “expression of MAP2” value is reported as “significantly increased the expression of MAP2”. The “neuron specific enolase (NSE)/enolase 2” value in data set [1] is “statistically-significant effect suppressing”. Also, the “expression of β3Tubulin” value in the data set with β3Tubulin is “increases the expression of β3Tubulin”. For the same substance, the “TJP1 gene expression in the colon” value with TJP1 and Occludin is given as “significantly up-regulate”. Also, the “reduction of cell viability” value in the data set with SH-SY5Y cells is given as “approximately 70%”. For the same substance, in the data set with SH-SY5Y cells (undifferentiated neuroblastoma cells, MRx0029 at 5% or 10%), the cell viability result is “significant, dose-dependent decrease in cell viability”. Moreover, on HDAC3, the “inhibition of HDAC3” value is reported as “very potent inhibitor”. For the same substance, the “inhibition of class II HDACs” value with class II HDACs is “not as significant”. For the same substance, the “inhibition of HDAC2” value against HDAC2 was “very potent inhibitor”. The “inhibition of HDAC1” value against HDAC1 is recorded as “very potent inhibitor”.

For the origin of these results see US11419902B2, “Compositions comprising bacterial strains” (4D Pharma Research Limited, priority 2018, dated 2022).
